# Measured values reported in patent publication US6303596A, “Use of taurolidine for treatment of leukemias” (priority 2000, dated 2001).
# Assays:
# Lymphocytes = experiment: TUNEL flow cytometry, lymphocytes in PBMC, culture medium; format: cell-based, human; conditions: 6 h
# Procedure: FIG. 14A and FIG. 14B are terminal deoxytransferase-mediated deoxyuridine-triphosphate-biotin nick end labeling assay (TUNEL) analyses of control cells and taurolidine-treated PBMC, respectively. Cells were incubated with 100 μg/ml taurolidine for six hours and processed for TUNEL analysis as given below. Parallel samples were stained with FITC-conjugated anti-CD14 and propidium iodide (PI) as described below. Ten thousand events were recorded per sample. TUNEL signal (x-axis) is a measure of DNA fragmentation, which FSC (y-axis) is related to cell size. TUNEL-negative lymphocytes are bounded by the rectangle R1, while TUNEL-negative monocytes (CD14 positive cells) are bounded by the rectangle R2. The vertical line indicates demarcation between TUNEL-negative and TUNEL-positive cells. There were minimal numbers of PI-positive cells in the six hour samples (see Table IV).
# (§1) In the second method, DNA fragmentation was detected via TUNEL assay according to the manufacturer's instructions. With this methodology, 2×10^6 cells were fixed with 2% paraformaldehyde, permeabilized with 0.1% Triton X-100/0.1% citrate, incubated at 37° C. with terminal deoxynucleotidyl transferase and FITC-dUTP, rinsed and analyzed by flow cytometry. Enhanced FITC signal indicates apoptosis-specific DNA fragmentation. Gavriali, et al, "Identification of programmed cell death in situ via specific labeling of nuclear DNA fragmentation," J Cell Biol 119:493 (1992). Parallel aliquots of unfixed cells were treated with PI and FITC-conjugated anti-CD14 and analyzed by flow cytometry, in order to identify cells with permeable cell membranes (since PI binds to DNA but is excluded from cells with intact plasma membranes) and also to determine the cell-specificity of the apoptotic signal.
# A Becton-Dickinson FACSCalibur instrument was used for flow cytometric analysis of cells. Assessment of cell diameter (forward scatter; FCS) and granularity (side scatter; SSC).was carried out on unfixed cells. Discrimination between lymphocytes and monocytes was made possible by their characteristic differences in FSC and SSC, and confirmed by staining monocytes with FITC-labeled anti-CD14 antibodies and lymphocytes with a combination of FITC-conjugated anti-CD3 and PE-conjugated anti-CD19. After incubation with taurolidine (with or without concomitant LPS treatment), cells were rinsed twice in phosphate-buffered saline containing 0.1% bovine serum albumin (PBSA) and 1×10^6 cells were resuspended in 0.1 ml PBSA. After 5 μl FITC-conjugated anti-CD14 was added, cells were incubated in the dark on ice for 15 minutes and then centrifuged at 250×g. Cells were resuspended in 500 μl PBSA containing 5 μg/ml PI and subjected to flow cytometry.
# Consequently, TUNEL analysis was performed on PBMC at 3, 6, or 24 hours after treatment with 25 to 100 μg/ml taurolidine. Aliquots of harvested cells were also labeled with FITC-conjugated anti-CD14 antibodies and PI, which allowed identification of monocytes (CD14-positive cells) and cells with damaged cell membranes (PI-positive cells). […] Thus, nearly 75% of the monocytes were TUNEL-positive following treatment with 100 μg/ml taurolidine for six hours. Confirmation that the TUNEL-positive cells were monocytes was obtained by staining with FITC-conjugated anti-CD14.
# ^a Analysis by flow cytometry after staining cells with FITC-conjugated
# anti-CD14 and PI, and processing for TUNEL. Data are mean ± SD of two
# ^b Percent of cells present in the TUNEL-negative region in control
# TNFα = experiment: LPS-induced TNFα expression/secretion by PBMC, ELISA; format: cell-based, human; conditions: taurolidine 100 μg/ml, 4 h
# Procedure: FIG. 3A and FIG. 3B are graphs depicting taurolidine inhibition of LPS-induced alpha […] (TNFα) expression by monocytic cells as determined by assay procedures. FIG. 3A represents MM6 cells; FIG. 3B represents PBMC. The cells were induced with LPS (hatched bars: 100 ng/ml LPS in RPMI+10% BCS; solid bars: 10 ng/ml in AIM-V+0.01% BCS) in the presence of varying concentrations of taurolidine. After four hours, cell supernatants were collected for TNFα ELISA. Data are expressed as percent of TNFα levels measured in cell cultures treated with LPS alone (no taurolidine or vehicle). Experiments were performed with duplicate samples and were repeated at least three times. Values shown in FIG. 3A are from a representative experiment. Values shown in FIG. 3B are mean±SEM of three experiments.
# Human peripheral blood mononuclear cells (PBMC) were isolated from heparinized blood by centrifugation using Histopaque as per manufacturer's instructions. The isolated PBMC were suspended in RPMI supplemented with 10% BCS and were used in experiments immediately thereafter. As determined by flow cytometry, PBMC were typically 11±2% monocytes and 80±13% lymphocytes, with the remaining cytometric events consistent in size with platelets and cell aggregates. […]
# ECV304 = experiment: TUNEL / propidium iodide flow cytometry, ECV304; format: cell-based, human; conditions: ECV304, 6 hours after treatment
# Procedure: as §1
# In another study, TUNEL assays were performed on all cell lines 6 hours after cells were initially exposed to taurolidine (cells were treated for 4 hours, rinsed, and then incubated for 2 more hours before TUNEL assay was performed).
# . Taurolidine and anisomycin induced apoptosis in MM6, HL-60, and Jurkat cells (Table VIII). MM6 and HL-60 cells were similarly effected, with >80% TUNEL-positive cells after 6 hours. […]
# Data are percent of total cell-size events, and are expressed as mean ± […]
# epithelial cells = conditions: 5 mg/ml taurolidine, two hours; cited from earlier work
smiles,measurement,setting,value
"O=S1(=O)CCN(CN2CCS(=O)(=O)NC2)CN1 [taurolidine, 4,4'-methylenebis(perhydro-1,2,4-thiadiazin 1,1-dioxide)]",viability at 25 µg/mL,"Lymphocytes; Homo sapiens, Lymphocyte, lymphocytes, 25 μg/ml, percent of control, read-out: % TUNEL-Negative",100 ± 7%
same,viability at 50 µg/mL,"Lymphocytes; Homo sapiens, Lymphocyte, lymphocytes, 50 μg/ml, percent of control, read-out: % TUNEL-Negative",99.8 ± 3.4%
same,viability at 100 µg/mL,"Lymphocytes; Homo sapiens, Lymphocyte, lymphocytes, 100 μg/ml, percent of control, read-out: % TUNEL-Negative",102 ± 3.1%
same,cells remaining TUNEL-negative,"Lymphocytes; lymphocytes, up to 100 μg/ml taurolidine",~100%
same,apoptosis in lymphocytes,"Lymphocytes; up to 100 μg/ml taurolidine, culture medium",did not induce detectable apoptosis
same,inhibition of LPS-induced TNFα secretion,TNFα,maximally inhibit TNFα secretion
same,DNA fragmentation (TUNEL positivity),ECV304,did not demonstrate evidence for fragmentation of DNA
same,toxic effects on epithelial cells,epithelial cells,No toxic effects
